From patent publication US20080269213A1, “8-Hydroxyquinoline compounds and methods thereof” (Wyeth, priority 2006, published 2008) come the findings set out here.

Several values for one entry are separate records, joined by “and”; a condition that tells them apart may be missing. Equal values may be shown once. Read-outs that look alike come from different tables or passages of the source. Bounds are passed on as bounds.

One assay has as its target T1, Agg-1 (Homo sapiens, UniProt O75173).
T1 sequence (O75173 213-837): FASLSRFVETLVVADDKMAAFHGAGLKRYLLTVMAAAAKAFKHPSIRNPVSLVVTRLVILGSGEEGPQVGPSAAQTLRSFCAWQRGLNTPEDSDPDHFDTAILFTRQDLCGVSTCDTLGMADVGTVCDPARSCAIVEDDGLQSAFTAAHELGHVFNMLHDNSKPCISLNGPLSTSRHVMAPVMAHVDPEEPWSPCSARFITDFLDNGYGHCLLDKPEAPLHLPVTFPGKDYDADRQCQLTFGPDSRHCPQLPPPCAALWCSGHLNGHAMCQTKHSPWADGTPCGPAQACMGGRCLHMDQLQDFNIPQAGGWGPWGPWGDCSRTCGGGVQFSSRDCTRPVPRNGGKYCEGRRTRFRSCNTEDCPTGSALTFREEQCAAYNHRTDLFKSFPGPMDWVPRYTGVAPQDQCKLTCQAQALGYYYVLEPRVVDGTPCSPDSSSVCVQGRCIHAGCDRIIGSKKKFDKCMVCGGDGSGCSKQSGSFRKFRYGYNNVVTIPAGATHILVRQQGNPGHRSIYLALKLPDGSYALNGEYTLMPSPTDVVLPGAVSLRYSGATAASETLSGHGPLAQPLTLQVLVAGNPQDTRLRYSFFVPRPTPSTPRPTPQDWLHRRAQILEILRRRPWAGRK
Put plainly: Agg-1 FRET assay. In kind it is biochemical. The settings on record: for inhibition at 22 µM: @ 22000 nM; for IC50: read-out: Agg1 IC50; for inhibition at 66.7 µM: @ 66700 nM; for inhibition at 7.4 µM: @ 7400 nM; for inhibition at 0.8 µM: @ 800 nM. An excerpt:
The Agg-1/Agg-2 FRET data for N-[(8-hydroxyquinolin-2-yl)(phenyl)methyl]-2-phenoxyacetamide and 2-{[(phenoxyacetyl)amino](phenyl)methyl}quinolin-8-yl phenoxyacetate is presented in Table 1.

Assay [1] addresses T2, recombinant human Aggrecanase-2 Agg2-Phe628 (Homo sapiens, UniProt Q9UNA0).
T2 sequence (Q9UNA0 262-628 limits assumed): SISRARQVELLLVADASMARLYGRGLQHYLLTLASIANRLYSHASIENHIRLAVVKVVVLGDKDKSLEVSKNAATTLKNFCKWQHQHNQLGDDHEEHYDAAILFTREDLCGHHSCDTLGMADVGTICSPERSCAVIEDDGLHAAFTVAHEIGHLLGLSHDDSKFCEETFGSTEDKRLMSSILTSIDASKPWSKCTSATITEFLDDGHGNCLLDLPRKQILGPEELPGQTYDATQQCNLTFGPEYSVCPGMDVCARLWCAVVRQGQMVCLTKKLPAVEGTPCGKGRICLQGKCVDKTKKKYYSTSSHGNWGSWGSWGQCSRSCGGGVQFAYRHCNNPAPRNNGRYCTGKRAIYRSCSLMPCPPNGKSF
Put plainly: Aggrecanase 2 in vitro enzyme assay (Agg-2 FRET, quenched fluorescent peptide substrate). In kind it is biochemical. Further details: purified recombinant human Aggrecanase-2 Agg2-Phe628 (MW=41,737); This is a truncated form of full-length human aggrecanase-2; made in house; host or cells: CHO cells. Conditions: for inhibition at 11 µM: @ 11000 nM; for Agg-2 FRET Median PCT INHIB: concentration not given. In outline: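 Continuous FRET assay with purified truncated human Aggrecanase-2 Agg2-Phe628 (CHO-expressed, 0.5 μg/ml final) and brevican-derived Abz/Dnp peptide (25 μM final) in 50 mM HEPES pH 7.5, 100 mM NaCl, 5 mM CaCl2, 0.1% CHAPS, 5% glycerol. Enzyme preincubated with compound before substrate; fluorescence (ex 340/em 420 nm) followed kinetically 40 min at 30 °C.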

The mark [2] stands for this setting: read-out: Agg-2 FRET Median IC50.

Take `O=C(COc1ccccc1)NC(c1cccc(Oc2ccc(Cl)cc2)c1)c1cc(Cl)c2cccnc2c1O` (centres unmarked) [Example 129, N-{(5-chloro-8-hydroxyquinolin-7-yl)[3-(4-chlorophenoxy)phenyl]methyl}-2-phenoxyacetamide]: the inhibition at 22 µM on Agg-1 (read-out: Agg1 %) worked out at 51%. Also, the inhibition at 11 µM in assay [1] is 52%.
On to `Cc1ccc(Oc2cccc(C(NC(=O)COc3ccccc3)c3cc(Cl)c4cccnc4c3O)c2)cc1` (centres unmarked) [Example 130, N-{(5-chloro-8-hydroxyquinolin-7-yl)[3-(4-methylphenoxy)phenyl]methyl}-2-phenoxyacetamide], for which the inhibition at 22 µM at Agg-1 (read-out: Agg1 %) amounted to 52%. In addition, in assay [1] (@ 7400 nM), the inhibition at 7.4 µM came out at 58%.
Turning to `O=C(COc1ccccc1)NC(c1cccc(Oc2ccccc2)c1)c1cc(Cl)c2cccnc2c1O` (centres unmarked) [Example 131, N-[(5-chloro-8-hydroxyquinolin-7-yl)(3-phenoxyphenyl)methyl]-2-phenoxyacetamide], the 50% inhibitory concentration (IC50) at Agg-1 was greater than 67000 nM; in assay [1] (read-out: Agg2 IC50) it was 4100 nM.
On to `CN(C)c1ccc(C(NC(=O)COc2ccccc2)c2cc(Cl)c3cccnc3c2O)cc1` (centres unmarked) [Example 134, N-{(5-chloro-8-hydroxyquinolin-7-yl)[4-(dimethylamino)phenyl]methyl}-2-phenoxyacetamide], for which, at Agg-1 (@ 2500 nM, read-out: Agg1 %), the inhibition at […] came out at 54%. The half-inhibitory concentration (IC50) in assay [1] (read-out: Agg2 IC50) was found to be 1650 nM.
In the case of `CCN(CC)c1ccc(C(NC(=O)COc2ccccc2)c2cc(Cl)c3cccnc3c2O)cc1` (centres unmarked) [Example 135, N-{(5-chloro-8-hydroxyquinolin-7-yl)[4-(diethylamino)phenyl]methyl}-2-phenoxyacetamide], the concentration for half-maximal inhibition (IC50) at Agg-1 was 22000 to 67000 nM; in assay [1] (read-out: Agg2 IC50), 2800 nM.
Take `CCCCN(CCCC)c1ccc(C(NC(=O)COc2ccccc2)c2cc(Cl)c3cccnc3c2O)cc1` (centres unmarked) [Example 136, N-{(5-chloro-8-hydroxyquinolin-7-yl)[4-(dibutylamino)phenyl]methyl}-2-phenoxyacetamide]: the inhibition at 66.7 µM at Agg-1 (read-out: Agg1 %) was 40%. In addition, the inhibition at 33.3 µM in assay [1] (@ 33300 nM) stood at 52%.
For the compound `O=C(COc1ccccc1)NC(c1ccc(C#Cc2ccccc2)cc1)c1cc(Cl)c2cccnc2c1O` (centres unmarked) [Example 141, N-{(5-chloro-8-hydroxyquinolin-7-yl)[4-(phenylethynyl)phenyl]methyl}-2-phenoxyacetamide], the inhibition at 7.4 µM on Agg-1 (read-out: Agg1 %) worked out at 48%. The inhibition at […] in assay [1] (@ 1200 nM) turned out to be 58%. Also, the “Agg-2 FRET Median PCT INHIB” value in assay [1] amounted to 50%.
As for `O=C(COc1ccccc1)NC(c1ccc(-n2cccn2)cc1)c1cc(Cl)c2cccnc2c1O` (centres unmarked) [Example 145, N-{(5-chloro-8-hydroxyquinolin-7-yl)[4-(1H-pyrazol-1-yl)phenyl]methyl}-2-phenoxyacetamide], the IC50 on Agg-1 came out at 5800 nM; in assay [1] (read-out: Agg2 IC50) it was 1200 nM.
For `CC(C)(C)c1csc(-c2ccc(C(NC(=O)COc3ccccc3)c3cc(Cl)c4cccnc4c3O)cc2)n1` (centres unmarked) [Example 146, N-[[4-(4-tert-butyl-1,3-thiazol-2-yl)phenyl](5-chloro-8-hydroxyquinolin-7-yl)methyl]-2-phenoxyacetamide], the inhibition at 66.7 µM at Agg-1 (read-out: Agg1 %) was 42%. In addition, the inhibition at 11 µM in assay [1] was 49%.
For `O=C(COc1ccccc1)NC(c1ccc(-c2csnn2)cc1)c1cc(Cl)c2cccnc2c1O` (centres unmarked) [Example 147, N-{(5-chloro-8-hydroxyquinolin-7-yl)[4-(1,2,3-thiadiazol-4-yl)phenyl]methyl}-2-phenoxyacetamide], the figures for the 50% inhibitory concentration (IC50) (at Agg-1; in assay [1] (read-out: Agg2 IC50); in assay [1] (setting [2])) were 4680 nM, 1070 nM and 1070 nM, respectively.
With `COc1ccc2cc(C(NC(=O)COc3ccccc3)c3cc(Cl)c4cccnc4c3O)ccc2c1` (centres unmarked) [Example 165, N-[(5-chloro-8-hydroxyquinolin-7-yl)(6-methoxy-2-naphthyl)methyl]-2-phenoxyacetamide], the inhibition at 22.2 µM on Agg-1 (@ 22200 nM, read-out: Agg1 %) came to 50%. The IC50 in assay [1] (read-out: Agg2 IC50) was found to be 2300 nM.
For the compound `O=C(COc1ccccc1)NC(c1cc2ccccc2o1)c1cc(Cl)c2cccnc2c1O` (centres unmarked) [Example 168, N-[1-benzofuran-2-yl(5-chloro-8-hydroxyquinolin-7-yl)methyl]-2-phenoxyacetamide], the inhibition at 66.7 µM at Agg-1 (read-out: Agg1 %) came out at 49%. The IC50 in assay [1] (read-out: Agg2 IC50) was in the range of 400 to 1200 nM.
`O=C(COc1ccccc1)NC(c1ccc2c(c1)CCO2)c1cc(Cl)c2cccnc2c1O` (centres unmarked) [Example 170, N-[(5-chloro-8-hydroxyquinolin-7-yl)(2,3-dihydro-1-benzofuran-5-yl)methyl]-2-phenoxyacetamide]: the inhibition at 7.4 µM at Agg-1 (read-out: Agg1 %) was 43%. In addition, the IC50 in assay [1] (read-out: Agg2 IC50) came to 2400 nM.
On to `CC1(C)CCc2cc(C(NC(=O)COc3ccccc3)c3cc(Cl)c4cccnc4c3O)ccc2O1` (centres unmarked) [Example 171, N-[(5-chloro-8-hydroxyquinolin-7-yl)(2,2-dimethyl-3,4-dihydro-2H-chromen-6-yl)methyl]-2-phenoxyacetamide], for which, at Agg-1 (read-out: Agg1 %), the inhibition at 66.7 µM is 55%. The IC50 in assay [1] (read-out: Agg2 IC50) is 1400 nM.
Turning to `O=C(COc1ccccc1)NC(c1cc2n(n1)CSC2)c1cc(Cl)c2cccnc2c1O` (centres unmarked) [Example 174, N-[(5-chloro-8-hydroxyquinolin-7-yl)(4H-pyrazolo[1,5-c][1,3]thiazol-2-yl)methyl]-2-phenoxyacetamide], the “Agg1 %” value at Agg-1 (@ 7000-22000 nM) was 42% @ 7000-22000. Moreover, in assay [1] (@ 1900 nM), the inhibition at […] was 40%.
`Cn1nnc2cc(C(NC(=O)COc3ccccc3)c3cc(Cl)c4cccnc4c3O)ccc21` (centres unmarked) [Example 177, N-[(5-chloro-8-hydroxyquinolin-7-yl)(1-methyl-1H-1,2,3-benzotriazol-5-yl)methyl]-2-phenoxyacetamide]: the IC50 on Agg-1 was greater than 20000 nM; in assay [1] (read-out: Agg2 IC50), 1300 nM; in assay [1] (setting [2]), 1300 nM.
On to `O=C(COc1ccccc1)NC(c1cn2c(n1)COCC2)c1cc(Cl)c2cccnc2c1O` (centres unmarked) [Example 178, N-[(5-chloro-8-hydroxyquinolin-7-yl)(5,6-dihydro-8H-imidazo[2,1-c][1,4]oxazin-2-yl)methyl]-2-phenoxyacetamide], for which the IC50 is greater than 20000 nM at Agg-1 and 6200 nM in assay [1] (read-out: Agg2 IC50).
Taken in the same sequence, the figures for `O=C(COc1ccccc1)NC(c1cc2n(n1)CCC2)c1cc(Cl)c2cccnc2c1O` (centres unmarked) [Example 179, N-[(5-chloro-8-hydroxyquinolin-7-yl)(5,6-dihydro-4H-pyrrolo[1,2-b]pyrazol-2-yl)methyl]-2-phenoxyacetamide] were greater than 20000 nM and roughly 2500 nM.
With `O=C(NC(c1ccccn1)c1cc(Cl)c2cccnc2c1O)OCc1ccccc1` (centres unmarked) [Example 183, benzyl [(5-chloro-8-hydroxyquinolin-7-yl)(pyridin-2-yl)methyl]carbamate], the half-inhibitory concentration (IC50) at Agg-1 is greater than 67000 nM; in assay [1] (read-out: Agg2 IC50), roughly 2500 nM. The “Agg-2 FRET Median PCT INHIB” value in assay [1] turned out to be 50%.
On to `C=CC(NC(=O)COc1ccccc1)c1cc(Cl)c2cccnc2c1O` (centres unmarked) [Example 186, N-[1-(5-chloro-8-hydroxyquinolin-7-yl)prop-2-en-1-yl]-2-phenoxyacetamide], for which, on Agg-1 (read-out: Agg1 %), the inhibition at 0.8 µM stood at 50%. Further, the inhibition at 3.7 µM in assay [1] (@ 3700 nM) was found to be 38%.
Regarding `C/C=C/C(NC(=O)COc1ccccc1)c1cc(Cl)c2cccnc2c1O` (centres unmarked) [Example 187, N-[(2E)-1-(5-chloro-8-hydroxyquinolin-7-yl)but-2-en-1-yl]-2-phenoxyacetamide], the inhibition at 0.8 µM at Agg-1 (read-out: Agg1 %) came out at 40%. The IC50 in assay [1] (read-out: Agg2 IC50) and in assay [1] (setting [2]) was 2530 nM each time.
For the compound `Nc1cccc(C(NC(=O)COc2ccccc2)c2cc(Cl)c3cccnc3c2O)c1` (centres unmarked) [Example 202, N-[(3-aminophenyl)(5-chloro-8-hydroxyquinolin-7-yl)methyl]-2-phenoxyacetamide], the 50% inhibitory concentration (IC50) at Agg-1 was greater than 2000 nM; in assay [1] (read-out: Agg2 IC50) it was 4590 nM; in assay [1] (setting [2]), 4590 nM and 4360 nM.
